Source: patent US8008492B2, “Compounds that act as a vehicle for delivery through the blood-brain barrier and charge delivery vehicle constructions” (priority 2006, dated 2011)

Assays:
[1] = Immobilized artificial membrane chromatography (IAMC); type: physicochemical; conditions: isocratic, phosphate buffer pH 7.4 and 20% MeCN
Text: To evaluate the BBB-shuttles and BBB-shuttle-cargo constructs, a chromatographic technique, IAMC (immobilized artificial membrane chromatography) developed by Pidgeon was used (cf. A. Albert, Chemical aspects of selective toxicity. Nature 1958, vol. 182, pp. 421-423). This technique uses phospholipid molecules covalently immobilized to silica particles at high density as the stationary phase. It has been used to purify membrane proteins, to immobilize enzymes and to predict transport across biological barriers. […] IAMC interactions include ionic, lipophilic and hydrogen bonding interactions that can be combined under a parameter known as phospholipophilicity. […] The compounds were detected by UV absorption at 220 nm. […] The retention times (tr) were transformed into capacity factors (kIAM) according to the following equation: kIAM=(tr−t0)/t0, where tr is the retention time of the studied compound and t0 is the retention time of a compound that would not be retained by the column (e.g. citric acid). As a control, propranolol was studied. BBB-shuttles and the BBB-shuttle-cargo constructs were also evaluated by IAMC (Immobilized Artificial Membrane Chromatography), a chromatographic technique that measures the phospholipophilicity of our compounds, their tendency to interact with phosphatidylcholine covalently immobilized. See results in Table 6 and 7.

[2] = Parallel artificial membrane permeability assay (PAMPA); type: in vitro ADME, porcine; conditions: 200 μM initial, pH 7.4, 4 hours, room temperature; for Effective permeability Pe: triplicate
Text: Parallel artificial membrane permeability assay (PAM PA). The evaluation method chosen is the Parallel Artificial Membrane Permeability Assay (PAMPA), which allows to predict or evaluate only this transport mechanism. In general terms, this method is simple, automatizable with high throughput, has a low cost and require only a small amount of test compound. The PAMPA method originally introduced by Kansy at Roche uses an artificial membrane in the form of filter supported phospholipids bilayers ([…] al., “Physicochemical high throughput screening: Parallel artificial membrane permeability assay in the description of the absorption processes” J. Med. Chem. 1998, vol. 41, pp. 1007-1010). The phospholipid membrane mimics the cell membrane, but has no means for active or paracellular transport of drug molecules. It is a very convenient tool to evaluate the transport of compounds by passive diffusion. This technique allows the evaluation of pure compounds, crudes or even mixtures of compounds. PAMPA assay is used to determine the ability of the BBB shuttle-cargo constructs to cross the BBB by passive diffusion. […] The compound of interest was dissolved to the desired concentration (200 μM). The PAMPA sandwich was separated and the donor well was filled with 200 μL of the compound solution to be studied. The acceptor plate was placed into the donor plate making sure that the underside of membrane was in contact with buffer. 4 μL of mixture of phospholipids (20 mg/mL) in dodecane were added into each well and 200 μL of buffer solution were added to the each acceptor well. The plate was covered and incubated at room temperature in a saturated humidity atmosphere for 4 hours under orbital agitation at 100 rpm. […] The transport was also confirmed by MALDI-TOF spectrometry and HPLC-MS of aliquotes of the acceptor wells. The mixture of phospholipids used is a porcine polar brain lipid extract. […] The effective permeability was calculated using the following equation: [formula] where: • t time (hours) • CA(t) Compound concentration at the acceptor well at time t • CD(t0) Compound concentration at the donor well at 0 h As a control, the transport of propranolol was evaluated in parallel and a mass balance was calculated for all the studied compounds in order to detect if retention in the phospholipids occur. The different compounds were evaluated by PAMPA assay.

O=C(O)[C@H]1O[C@@H](Oc2cc3oc(-c4ccccc4)cc(=O)c3c(O)c2O)[C@H](O)[C@@H](O)[C@@H]1O [Baicalin, baicalin, reference compound]
Capacity factor kIAM ([1]; baicalin constructs): 1.24

CN1C(=O)C(Cc2ccc(NC(=O)C3OC(Oc4cc5oc(-c6ccccc6)cc(=O)c5c(O)c4O)C(O)C(O)C3O)cc2)NC(=O)C1Cc1ccccc1 (centres unmarked) [Compound 5a, DKP Phe(p-NH—CO-baicalin)-N-MePhe]
Log Pe ([2]; baicalin constructs): −7.7 | Effective permeability Pe ([2]; baicalin constructs): 1.33 10^−8 cm/s | Capacity factor kIAM ([1]; baicalin constructs): 2.42

CN1C(=O)C(Cc2ccc(NC(=O)C3OC(Oc4cc5oc(-c6ccccc6)cc(=O)c5c(O)c4O)C(O)C(O)C3O)cc2)NC(=O)C1CC1CCCCC1 (centres unmarked) [Compound 5b, DKP Phe(p-NH—CO-baicalin)-N-MeCha]
Log Pe ([2]; baicalin constructs): −6.4 | Effective permeability Pe ([2]; baicalin constructs): 3.65 10^−7 cm/s | Capacity factor kIAM ([1]; baicalin constructs): 6.09

CN1C(=O)C(Cc2ccc(NC(=O)C3OC(Oc4cc5oc(-c6ccccc6)cc(=O)c5c(O)c4O)C(O)C(O)C3O)cc2)NC(=O)C1Cc1ccc2ccccc2c1 (centres unmarked) [Compound 5c, DKP Phe(p-NH—CO-baicalin)-N-Me2Nal]
Log Pe ([2]; baicalin constructs): −5.4 | Effective permeability Pe ([2]; baicalin constructs): 3.70 10^−6 cm/s | Capacity factor kIAM ([1]; baicalin constructs): 10.66

CN1C(=O)C(Cc2ccc(NC(=O)C3OC(Oc4cc5oc(-c6ccccc6)cc(=O)c5c(O)c4O)C(O)C(O)C3O)cc2)NC(=O)C1Cc1ccc2ccc3cccc4ccc1c2c34 (centres unmarked) [Compound 5d, DKP Phe(p-NH—CO-baicalin)-N-Me1PyrenylAla]
Log Pe ([2]; baicalin constructs): −8.7 | Effective permeability Pe ([2]; baicalin constructs): 0.19 10^−8 cm/s | Capacity factor kIAM ([1]; baicalin constructs): >100

CN1C(=O)C(Cc2ccc(NC(=O)C3OC(Oc4cc5oc(-c6ccccc6)cc(=O)c5c(O)c4O)C(O)C(O)C3O)cc2)NC(=O)C1CCc1ccccc1 (centres unmarked) [Compound 5e, DKP Phe(p-NH—CO-baicalin)-N-MeHomoPhe]
Log Pe ([2]; baicalin constructs): −9.3 | Effective permeability Pe ([2]; baicalin constructs): 0.05 10^−8 cm/s | Capacity factor kIAM ([1]; baicalin constructs): 4.15

CCCCCCC1C(=O)NC(Cc2ccc(NC(=O)C3OC(Oc4cc5oc(-c6ccccc6)cc(=O)c5c(O)c4O)C(O)C(O)C3O)cc2)C(=O)N1C (centres unmarked) [Compound 5f, DKP Phe(p-NH—CO-baicalin)-N-MeOct]
Log Pe ([2]; baicalin constructs): −6.3 | Effective permeability Pe ([2]; baicalin constructs): 4.97 10^−7 cm/s | Capacity factor kIAM ([1]; baicalin constructs): 10.47

CN1C(=O)C(Cc2ccc(NCC(=O)NCCc3ccc(O)c(O)c3)cc2)NC(=O)C1Cc1ccccc1 (centres unmarked) [Compound 6a, DKP Phe(p-NH—CH2—CO—NH-dopamine)-N-MePhe]
Log Pe ([2]; dopamine constructs): −7.4 | Effective permeability Pe ([2]; dopamine constructs): 3.61 10^−8 cm/s | Capacity factor kIAM ([1]; dopamine constructs): 3.54

CN1C(=O)C(Cc2ccc(NCC(=O)NCCc3ccc(O)c(O)c3)cc2)NC(=O)C1CC1CCCCC1 (centres unmarked) [Compound 6b, DKP Phe(p-NH—CH2—CO—NH-dopamine)-N-MeCha]
Log Pe ([2]; dopamine constructs): −7.6 | Effective permeability Pe ([2]; dopamine constructs): 2.28 10^−8 cm/s | Capacity factor kIAM ([1]; dopamine constructs): 0.86

CN1C(=O)C(Cc2ccc(NCC(=O)NCCc3ccc(O)c(O)c3)cc2)NC(=O)C1Cc1ccc2ccccc2c1 (centres unmarked) [Compound 6c, DKP Phe(p-NH—CH2—CO—NH-dopamine)-N-Me2Nal]
Log Pe ([2]; dopamine constructs): −6.9 | Effective permeability Pe ([2]; dopamine constructs): 11.5 10^−8 cm/s | Capacity factor kIAM ([1]; dopamine constructs): 16.14

CN1C(=O)C(Cc2ccc(NCC(=O)NCCc3ccc(O)c(O)c3)cc2)NC(=O)C1Cc1ccc2ccc3cccc4ccc1c2c34 (centres unmarked) [Compound 6d, DKP Phe(p-NH—CH2—CO—NH-dopamine)-N-Me(1PyrenylAla)]
Log Pe ([2]; dopamine constructs): −7.7 | Effective permeability Pe ([2]; dopamine constructs): 1.90 10^−8 cm/s | Capacity factor kIAM ([1]; dopamine constructs): >100

CN1C(=O)C(Cc2ccc(NCC(=O)NCCc3ccc(O)c(O)c3)cc2)NC(=O)C1CCc1ccccc1 (centres unmarked) [Compound 6e, DKP Phe(p-NH—CH2—CO—NH-dopamine)-N-MeHomoPhe]
Log Pe ([2]; dopamine constructs): −8.1 | Effective permeability Pe ([2]; dopamine constructs): 0.76 10^−8 cm/s | Capacity factor kIAM ([1]; dopamine constructs): 3.15

CCCCCCC1C(=O)NC(Cc2ccc(NCC(=O)NCCc3ccc(O)c(O)c3)cc2)C(=O)N1C (centres unmarked) [Compound 6f, DKP Phe(p-NH—CH2—CO—NH-dopamine)-N-MeOct]
Log Pe ([2]; dopamine constructs): −6.5 | Effective permeability Pe ([2]; dopamine constructs): 32.1 10^−8 cm/s | Capacity factor kIAM ([1]; dopamine constructs): 15.47

NCCc1ccc(O)c(O)c1 [Dopamine, dopamine, reference compound]
Capacity factor kIAM ([1]; dopamine constructs): 0.30
